Assay: Storage stability of Ivacaftor APO-I polymorph at 25±2° C. / 60%±5% RH
Assay type: physicochemical
Method: Ivacaftor APO-I polymorph samples were packed in an inner antistatic polyethylene bag sealed with a cable tie encased within a heat sealed composite aluminum out bag under nitrogen within a HDPE drum. The samples were then tested for stability after storing at 25±2° C. with 60%±5% relative humidity (RH). Impurities, drug concentrations, polymorph stability and other parameters were measured at intervals during the storage.

Assay (by HPLC) (12 months): 99.8% | Description (12 months): Off white | Assay (by HPLC) (Initial): 99.1% | Description (Initial): Off white | XRPD (polymorph stability) (Initial): APO-I
SMILES: CC(C)(C)c1cc(C(C)(C)C)c(NC(=O)c2c[nH]c3ccccc3c2=O)cc1O [Ivacaftor APO-I polymorph, N-(2,4-di-tert-butyl-5-hydroxyphenyl)-1,4-dihydro-4-oxoquinoline-3-carboxamide]
